Experimental data: patent US9260382B2, “Methods of reducing virulence in bacteria” (priority 2010, dated 2016)

Tested on: hrpA promoter (T3SS)
Assay: hrpA promoter-probe phrpA in Erwinia amylovora 273, flow cytometry
Format: cell-based
Details: Ea273 (phrpA), HIM + 100 μM compound
Method: Wild-type Erwinia amylovora 273 was used in this study. The promoter-probe plasmid phrpA was constructed as follows. The hrpA promoter region of Erwinia amylovora 273 was amplified and cloned into pPROBE-NT to produce PhrpA. Plasmid PhrpA was electroporated into Erwinia amylovora 273. Expression of hrpA was analyzed using a FACS Calibur flow cytometer (BD Biosciences, CA). Wild-type Erwinia amylovora 273 containing phrpA was cultured in a hrp-inducing medium (HIM) containing dimethyl sulfoxide (DMSO; solvent of chemical compounds), or HIM supplemented with 100 μM of each compound, and promoter activity was assessed at 6 h and 9 h by measuring GFP intensity using flow cytometry (Table 19).

Molecule: O=C(O)/C=C/c1cccs1 [Compound 011, trans-3-(2-Thienyl)acrylic acid]
- Avg MFI ± SD, hrpA expression (6 h): 230.1 ± 5.8
- Avg MFI ± SD, hrpA expression (9 h): 167.3 ± 8.2

Molecule: Cc1ccccc1/C=C/C(=O)NO [Compound 160, trans-2-Methylcinnamohydroxamic acid]
- Avg MFI ± SD, hrpA expression (6 h): 122.7 ± 1.9
- Avg MFI ± SD, hrpA expression (9 h): 95.7 ± 3.7

Molecule: O=C(/C=C/c1ccc(F)cc1)NO [Compound 141, trans-4-Fluorocinnamohydroxamic acid]
- Avg MFI ± SD, hrpA expression (6 h): 167.6 ± 4.7
- Avg MFI ± SD, hrpA expression (9 h): 119.0 ± 7.1

Molecule: O=C(O)CCc1ccc(O)cc1 [Compound 007, 3-(4-Hydroxyphenyl)propionic acid]
- Avg MFI ± SD, hrpA expression (6 h): 1093.1 ± 62.8
- Avg MFI ± SD, hrpA expression (9 h): 1211.0 ± 58.7

Molecule: CN(C(=O)c1ccc(/C=C/C(=O)O)cc1)c1ccccc1 [Compound 167, trans-4-(Carbo-N-methyl-phenylamide)cinnamic acid]
- Avg MFI ± SD, hrpA expression (6 h): 729.7 ± 67.5
- Avg MFI ± SD, hrpA expression (9 h): 707.3 ± 55.9

Molecule: O=Cc1ccc(/C=C/C(=O)O)cc1 [Compound 029, trans-4-Formlycinnamic acid]
- Avg MFI ± SD, hrpA expression (6 h): 285.1 ± 40.8
- Avg MFI ± SD, hrpA expression (9 h): 218.3 ± 9.9

Molecule: O=C(/C=C/c1ccco1)NO [Compound 163, trans-3-(2-Furyl)acrylhydroxamic acid]
- Avg MFI ± SD, hrpA expression (6 h): 231.5 ± 7.0
- Avg MFI ± SD, hrpA expression (9 h): 196.5 ± 14.9

Molecule: O=C(/C=C/c1ccccc1Cl)NO [Compound 150, trans-2-Chlorocinnamohydroxamic acid]
- Avg MFI ± SD, hrpA expression (6 h): 25.9 ± 3.2
- Avg MFI ± SD, hrpA expression (9 h): 30.5 ± 3.3

Molecule: O=C(O)/C=C/c1ccc(C(=O)Nc2ccccc2)cc1 [Compound 166, trans-4-(Carbo-phenylamide)cinnamic acid]
- Avg MFI ± SD, hrpA expression (6 h): 105.0 ± 53.0
- Avg MFI ± SD, hrpA expression (9 h): 221.2 ± 22.2

Molecule: O=C(O)/C=C/c1ccc(O)cc1O [Compound 002, 2,4-Dihydroxycinnamic acid]
- Avg MFI ± SD, hrpA expression (6 h): 1365.3 ± 104.9
- Avg MFI ± SD, hrpA expression (9 h): 1479.8 ± 72.9

Molecule: O=C(/C=C/c1ccc(CO)cc1)NO [Compound 147, trans-4-Hydroxymethylcinnamohydroxamic acid]
- Avg MFI ± SD, hrpA expression (6 h): 688.6 ± 39.2
- Avg MFI ± SD, hrpA expression (9 h): 746.8 ± 96.3

Molecule: O=C(O)/C=C/c1cccc(O)c1 [Compound 005, meta-coumaric acid]
- Avg MFI ± SD, hrpA expression (6 h): 1212 ± 47.6
- Avg MFI ± SD, hrpA expression (9 h): 1439.1 ± 97.9

Molecule: Cc1cccc(/C=C/C(=O)O)c1 [Compound 019, trans-3-Methylcinnamic acid]
- Avg MFI ± SD, hrpA expression (6 h): 311.5 ± 18.6
- Avg MFI ± SD, hrpA expression (9 h): 251.6 ± 13.3

Molecule: O=C(/C=C/c1ccc(O)cc1)NCCO [Compound 138, N-(2-Hydroxyethyl)-4-hydroxycinnamamide]
- Avg MFI ± SD, hrpA expression (6 h): 1474.5 ± 30.4
- Avg MFI ± SD, hrpA expression (9 h): 1907.0 ± 39.8

Molecule: O=C(O)[C@@H]1C[C@H]1c1ccccc1 (relative stereo) [Compound 010, trans-2-Phenylcyclopropane-1-carboxylic acid]
- Avg MFI ± SD, hrpA expression (6 h): 336.7 ± 28.1
- Avg MFI ± SD, hrpA expression (9 h): 293.0 ± 4.7

Molecule: O=C(O)/C=C/c1ccccc1Cl [Compound 021, trans-2-Chlorocinnamic acid]
- Avg MFI ± SD, hrpA expression (6 h): 225.7 ± 35.8
- Avg MFI ± SD, hrpA expression (9 h): 192.7 ± 8.6

Molecule: O=C(/C=C/c1ccc(-c2ccccc2)cc1)NO [Compound 140, trans-4-Phenylcinnamohydroxamic acid]
- Avg MFI ± SD, hrpA expression (6 h): 101.7 ± 17.1
- Avg MFI ± SD, hrpA expression (9 h): 82.8 ± 4.3

Molecule: Benzoic acid [Compound 034]
- Avg MFI ± SD, hrpA expression (6 h): 48.1 ± 5.4
- Avg MFI ± SD, hrpA expression (9 h): 32.6 ± 1.9

Molecule: O=C(O)/C=C/c1c[nH]c2ccccc12 [Compound 012, trans-3-Indoleacrylic acid]
- Avg MFI ± SD, hrpA expression (6 h): 33.7 ± 8.9
- Avg MFI ± SD, hrpA expression (9 h): 47.9 ± 6.9

Molecule: O=C(/C=C/c1cccc(O)c1)NO [Compound 130, trans-3-Hydroxycinnamohydroxamic acid]
- Avg MFI ± SD, hrpA expression (6 h): 431.4 ± 4.1
- Avg MFI ± SD, hrpA expression (9 h): 491.0 ± 10.2

Molecule: COc1ccccc1/C=C/C(=O)NO [Compound 159, trans-2-Methoxycinnamohydroxamic acid]
- Avg MFI ± SD, hrpA expression (6 h): 256.3 ± 10.8
- Avg MFI ± SD, hrpA expression (9 h): 337.3 ± 15.2

Molecule: O=C(/C=C/c1ccccc1Br)NO [Compound 152, trans-2-Bromocinnamohydroxamic acid]
- Avg MFI ± SD, hrpA expression (6 h): 15.7 ± 2.3
- Avg MFI ± SD, hrpA expression (9 h): 11.1 ± 1.2

Molecule: O=C(NO)c1ccccc1O [Compound 135, Salicylhydroxamic acid]
- Avg MFI ± SD, hrpA expression (6 h): 124.7 ± 7.7
- Avg MFI ± SD, hrpA expression (9 h): 147.8 ± 4.3

Molecule: O=C(/C=C/c1cccc([N+](=O)[O-])c1)NO [Compound 156, trans-3-Nitrocinnamohydroxamic acid]
- Avg MFI ± SD, hrpA expression (6 h): 67.8 ± 17.9
- Avg MFI ± SD, hrpA expression (9 h): 99.5 ± 4.9

Molecule: O=C(Cc1ccccc1)c1ccc(C2CC2C(=O)O)cc1 (stereo not drawn) [Compound 165, trans-2-[(4′-Benzylcarbonyl]phenylcyclopropane-1-carboxylic acid]
- Avg MFI ± SD, hrpA expression (6 h): 292.8 ± 17.1
- Avg MFI ± SD, hrpA expression (9 h): 229.4 ± 15.0

Molecule: O=C(O)/C=C/c1cccc(Cl)c1 [Compound 022, trans-3-Chlorocinnamic acid]
- Avg MFI ± SD, hrpA expression (6 h): 332.9 ± 16.9
- Avg MFI ± SD, hrpA expression (9 h): 238.3 ± 8.7

Molecule: O=C(O)/C=C/c1ccccc1C(=O)O [Compound 024, trans-2-Carboxycinnamic acid]
- Avg MFI ± SD, hrpA expression (6 h): 361.1 ± 76.1
- Avg MFI ± SD, hrpA expression (9 h): 332.2 ± 19.6

Molecule: O=Cc1ccc(/C=C/C(=O)NO)cc1 [Compound 146, trans-4-Formylcinnamohydroxamic acid]
- Avg MFI ± SD, hrpA expression (6 h): 414.3 ± 31.6
- Avg MFI ± SD, hrpA expression (9 h): 435.2 ± 36.2

Molecule: O=C(O)/C=C/c1ccc(Cl)cc1 [Compound 023, trans-4-Chlorocinnamic acid]
- Avg MFI ± SD, hrpA expression (6 h): 171.8 ± 7.7
- Avg MFI ± SD, hrpA expression (9 h): 125.8 ± 3.9

Molecule: O=C(O)/C=C/c1ccc(C(=O)O)cc1 [Compound 025, trans-4-Carboxycinnamic acid]
- Avg MFI ± SD, hrpA expression (6 h): 421.0 ± 10.6
- Avg MFI ± SD, hrpA expression (9 h): 496.7 ± 98.9

Molecule: Cc1ccc(/C=C/C(=O)O)cc1 [Compound 020, trans-4-Methylcinnamic acid]
- Avg MFI ± SD, hrpA expression (6 h): 208.5 ± 2.7
- Avg MFI ± SD, hrpA expression (9 h): 145.4 ± 3.7

Molecule: O=C(/C=C/c1ccccc1[N+](=O)[O-])NO [Compound 157, trans-2-Nitrocinnamohydroxamic acid]
- Avg MFI ± SD, hrpA expression (6 h): 104.6 ± 7.3
- Avg MFI ± SD, hrpA expression (9 h): 96.2 ± 3.3

Molecule: O=C(/C=C/c1ccc(Br)cc1)NO [Compound 128, trans-4-Bromocinnamohydroxamic acid]
- Avg MFI ± SD, hrpA expression (6 h): 17.6 ± 2.8
- Avg MFI ± SD, hrpA expression (9 h): 5.7 ± 2.2

Molecule: O=C(NO)[C@@H]1C[C@H]1c1ccccc1 (relative stereo) [Compound 162, trans-2-Phenylcyclopropane-1-carbohydroxamic acid]
- Avg MFI ± SD, hrpA expression (6 h): 711.1 ± 2.8
- Avg MFI ± SD, hrpA expression (9 h): 701.9 ± 2.8

Molecule: O=C(O)/C=C/c1ccc(S)cc1 [Compound 026, trans-4-Mercaptocinnamic acid]
- Avg MFI ± SD, hrpA expression (6 h): 159.7 ± 22.0
- Avg MFI ± SD, hrpA expression (9 h): 44.7 ± 2.7

Molecule: O=C(O)/C=C/c1cccnc1 [Compound 013, trans-3-(3-Pyridyl)acrylic acid]
- Avg MFI ± SD, hrpA expression (6 h): 468.3 ± 7.7
- Avg MFI ± SD, hrpA expression (9 h): 245.7 ± 3.1
